Reference: PubChem BioAssay (NCI)
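Cultured in 96-well plates, cells were exposed to test compound for 48 hours across five concentrations. The concentration for 50% growth inhibition is given as GI50. The concentration for full growth arrest is given as TGI.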

How the values were obtained:
Experiment in all cases: NCI anticancer screen, dose series, 48 h
UACC-257 melanoma = system: UACC-257 melanoma
COLO 205 colon = system: COLO 205 colon
IGROV1 ovarian = system: IGROV1 ovarian
HCT-15 colon = system: HCT-15 colon
SF-295 CNS = system: SF-295 CNS
PC-3 prostate = system: PC-3 prostate
SF-268 CNS = system: SF-268 CNS
SK-MEL-28 melanoma = system: SK-MEL-28 melanoma
NCI-H226 lung = system: NCI-H226 lung
SNB-75 CNS = system: SNB-75 CNS
SK-MEL-2 melanoma = system: SK-MEL-2 melanoma
A498 renal = system: A498 renal
HT29 colon = system: HT29 colon
M14 melanoma = system: M14 melanoma
U251 CNS = system: U251 CNS
CAKI-1 renal = system: CAKI-1 renal
UO-31 renal = system: UO-31 renal
OVCAR-5 ovarian = system: OVCAR-5 ovarian
MDA-MB-435 = system: MDA-MB-435
HL-60(TB) leukemia = system: HL-60(TB) leukemia
MDA-MB-231 breast = system: MDA-MB-231 breast
786-0 renal = system: 786-0 renal
NCI-H460 lung = system: NCI-H460 lung
MCF7 breast = system: MCF7 breast
HCT-116 colon = system: HCT-116 colon
OVCAR-8 ovarian = system: OVCAR-8 ovarian
K-562 leukemia = system: K-562 leukemia

For `COc1nc2c(cc1S(=O)(=O)c1ccccc1)CCc1c-2cnn1Cc1ccccc1`, the GI50 (UACC-257 melanoma) was 59.7 µM, the TGI (UACC-257 melanoma) was > 100 µM and the GI50 (COLO 205 colon) was 7.32 µM. The TGI (COLO 205 colon) was > 100 µM, the GI50 (IGROV1 ovarian) was 31.5 µM and the TGI (IGROV1 ovarian) was > 100 µM. For the same compound, the GI50 (HCT-15 colon) was 7.99 µM, the TGI (HCT-15 colon) was > 100 µM and the GI50 (SF-295 CNS) was 9.47 µM. For the same compound, the TGI (SF-295 CNS) was > 100 µM, the GI50 (PC-3 prostate) was 4.23 µM and the TGI (PC-3 prostate) was > 100 µM. The GI50 (SF-268 CNS) was > 100 µM, the TGI (SF-268 CNS) was > 100 µM and the GI50 (SK-MEL-28 melanoma) was > 100 µM. The TGI (SK-MEL-28 melanoma) was > 100 µM, the GI50 (NCI-H226 lung) was 35.8 µM and the TGI (NCI-H226 lung) was > 100 µM. The GI50 (SNB-75 CNS) was 20 µM, the TGI (SNB-75 CNS) was > 100 µM and the GI50 (SK-MEL-2 melanoma) was 30.4 µM. For the same compound, the TGI (SK-MEL-2 melanoma) was > 100 µM, the GI50 (A498 renal) was 2.7 µM and the TGI (A498 renal) was > 100 µM. The GI50 (HT29 colon) was 3.89 µM, the TGI (HT29 colon) was > 100 µM and the GI50 (M14 melanoma) was > 100 µM. The TGI (M14 melanoma) was > 100 µM, the GI50 (U251 CNS) was 7.58 µM and the TGI (U251 CNS) was > 100 µM. For the same compound, the GI50 (CAKI-1 renal) was 5.02 µM, the TGI (CAKI-1 renal) was > 100 µM and the GI50 (UO-31 renal) was 4.3 µM. The TGI (UO-31 renal) was > 100 µM, the GI50 (OVCAR-5 ovarian) was > 100 µM and the TGI (OVCAR-5 ovarian) was > 100 µM. For the same compound, the GI50 (MDA-MB-435) was > 100 µM, the TGI (MDA-MB-435) was > 100 µM and the GI50 (HL-60(TB) leukemia) was 2.95 µM. For the same compound, the TGI (HL-60(TB) leukemia) was > 100 µM, the GI50 (MDA-MB-231 breast) was > 100 µM and the TGI (MDA-MB-231 breast) was > 100 µM. For the same compound, the GI50 (786-0 renal) was 13.6 µM, the TGI (786-0 renal) was > 100 µM and the GI50 (NCI-H460 lung) was 7.06 µM. For the same compound, the TGI (NCI-H460 lung) was > 100 µM, the GI50 (MCF7 breast) was 3.48 µM and the TGI (MCF7 breast) was 38.9 µM. For the same compound, the GI50 (HCT-116 colon) was 3.8 µM, the TGI (HCT-116 colon) was > 100 µM and the GI50 (OVCAR-8 ovarian) was 34.5 µM. The TGI (OVCAR-8 ovarian) was > 100 µM, the GI50 (K-562 leukemia) was 3.02 µM and the TGI (K-562 leukemia) was > 100 µM.
